Laboratory results taken from the supplement of paper PMC10627819.

Experiments:
[1] = system: B. subtilis 168; assay: Bliss interaction score (quartile over a dose matrix) (fitness difference); higher = more antagonism (negative = synergy)
How it was run: (§1)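 The Bliss score is observed fitness minus expected fitness, where the expected value is the product of single-drug fitness values inferred from combination data. Fitness is OD595 at entry into stationary phase normalised to the plate's robust no-drug mean and capped at 1. Scores are reported as quartiles spanning technical, biological and donor/recipient replicates.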

[2] = system: S. aureus Newman; assay: as above
How it was run: as §1

[3] = system: S. pneumoniae D39V; assay: as above
How it was run: as §1

[4] = system: S. aureus DSM 20231; assay: as above
How it was run: as §1

[5] = system: B. subtilis 168; assay: fitness (endpoint OD595 vs no drug) (fraction); higher = more growth
How it was run: (§2)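 At 37 °C, bacteria in TSB, LB Lennox or CY were grown in 384-well plates from a starting OD595 of 0.01. OD595 was measured every 30 min for 14 h, with the first reading used as background. Fitness is the optical density at the switch to stationary phase as a fraction of the robust mean of no-drug control wells, capped at 1.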

[6] = system: S. aureus Newman; assay: as above
How it was run: as §2

[7] = system: S. pneumoniae D39V; assay: as above
How it was run: as §2

[8] = system: S. aureus DSM 20231; assay: as above
How it was run: as §2

[9] = first compound 1.25 µg/mL, partner 85.5 µg/mL
[10] = first compound 1.25 µg/mL, partner 171 µg/mL
[11] = first compound 1.25 µg/mL, partner 342 µg/mL
[12] = first compound 2.5 µg/mL, partner 85.5 µg/mL
[13] = first compound 2.5 µg/mL, partner 171 µg/mL
[14] = first compound 2.5 µg/mL, partner 342 µg/mL
[15] = first compound 5 µg/mL, partner 85.5 µg/mL
[16] = first compound 5 µg/mL, partner 171 µg/mL
[17] = first compound 5 µg/mL, partner 342 µg/mL
[18] = first compound 1.25 µg/mL, partner 1.25 µg/mL
[19] = first compound 1.25 µg/mL, partner 2.5 µg/mL
[20] = first compound 1.25 µg/mL, partner 5 µg/mL
[21] = first compound 2.5 µg/mL, partner 1.25 µg/mL
[22] = first compound 2.5 µg/mL, partner 2.5 µg/mL
[23] = first compound 2.5 µg/mL, partner 5 µg/mL
[24] = first compound 5 µg/mL, partner 1.25 µg/mL
[25] = first compound 5 µg/mL, partner 2.5 µg/mL
[26] = first compound 5 µg/mL, partner 5 µg/mL
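Wherever Bliss interaction score (quartile over a dose matrix) is given: first quartile when negative (synergy) and third quartile when positive (antagonism).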
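Wherever fitness (endpoint OD595 vs no drug) is given: OD595 on entry to stationary phase over no-drug wells; at most 1.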

C[n+]1ccc(-c2cc[n+](C)cc2)cc1 [Paraquat] + CCN(CC)CCOC(=O)c1ccc(N)cc1 [Procaine]
Bliss interaction score [1]: 0.0621 | Bliss interaction score [2]: 0.0516 | Bliss interaction score [3]: 0.0315 | Bliss interaction score [4]: 0.0567 | fitness [5, 9]: 0.954 | fitness [5, 10]: 0.943 | fitness [5, 11]: 0.89 | fitness [5, 12]: 0.877 | fitness [5, 13]: 0.935 | fitness [5, 14]: 0.89 | fitness [5, 15]: 0.813 | fitness [5, 16]: 0.837 | fitness [5, 17]: 0.812 | fitness [6, 9]: 0.959 | fitness [6, 10]: 0.956 | fitness [6, 11]: 0.944 | fitness [6, 12]: 0.917 | fitness [6, 13]: 0.909 | fitness [6, 14]: 0.947 | fitness [6, 15]: 0.948 | fitness [6, 16]: 0.951 | fitness [6, 17]: 0.937 | fitness ([7]; first compound 1.5 µg/mL, partner 85.5 µg/mL): ≥ 1 | fitness ([7]; first compound 1.5 µg/mL, partner 171 µg/mL): ≥ 1 | fitness ([7]; first compound 1.5 µg/mL, partner 342 µg/mL): 0.988 | fitness ([7]; first compound 3 µg/mL, partner 85.5 µg/mL): ≥ 1 | fitness ([7]; first compound 3 µg/mL, partner 171 µg/mL): 0.998 | fitness ([7]; first compound 3 µg/mL, partner 342 µg/mL): 0.971 | fitness ([7]; first compound 6 µg/mL, partner 85.5 µg/mL): ≥ 1 | fitness ([7]; first compound 6 µg/mL, partner 171 µg/mL): ≥ 1 | fitness ([7]; first compound 6 µg/mL, partner 342 µg/mL): 0.951 | fitness [8, 9]: 0.906 | fitness [8, 10]: 0.936 | fitness [8, 11]: 0.966 | fitness [8, 12]: 0.944 | fitness [8, 13]: 0.981 | fitness [8, 14]: 0.97 | fitness [8, 15]: 0.95 | fitness [8, 16]: 0.996 | fitness [8, 17]: 0.98

C[n+]1ccc(-c2cc[n+](C)cc2)cc1 [Paraquat] + CN1C2=CC=CC=C2N=C3C1=CC=CC3=O [Pyocyanin]
Bliss interaction score [1]: -0.0646 | Bliss interaction score [2]: 0.0765 | Bliss interaction score [3]: -0.0783 | Bliss interaction score [4]: -0.0554 | fitness [5, 18]: 0.918 | fitness [5, 19]: 0.866 | fitness [5, 20]: 0.721 | fitness [5, 21]: 0.903 | fitness [5, 22]: 0.838 | fitness [5, 23]: 0.707 | fitness [5, 24]: 0.802 | fitness [5, 25]: 0.673 | fitness [5, 26]: 0.534 | fitness [6, 18]: 0.838 | fitness [6, 19]: 0.821 | fitness [6, 20]: 0.401 | fitness [6, 21]: 0.799 | fitness [6, 22]: 0.776 | fitness [6, 23]: 0.382 | fitness [6, 24]: 0.825 | fitness [6, 25]: 0.751 | fitness [6, 26]: 0.366 | fitness ([7]; first compound 1.5 µg/mL, partner 0.325 µg/mL): ≥ 1 | fitness ([7]; first compound 1.5 µg/mL, partner 0.65 µg/mL): 0.954 | fitness ([7]; first compound 1.5 µg/mL, partner 1.3 µg/mL, one replicate): 0.528 | fitness ([7]; first compound 3 µg/mL, partner 0.325 µg/mL): ≥ 1 | fitness ([7]; first compound 3 µg/mL, partner 0.65 µg/mL): 0.97 | fitness ([7]; first compound 3 µg/mL, partner 1.3 µg/mL, one replicate): 0.597 | fitness ([7]; first compound 6 µg/mL, partner 0.325 µg/mL): ≥ 1 | fitness ([7]; first compound 6 µg/mL, partner 0.65 µg/mL): 0.955 | fitness ([7]; first compound 6 µg/mL, partner 1.3 µg/mL, one replicate): 0.601 | fitness [8, 18]: 0.918 | fitness [8, 19]: 0.891 | fitness [8, 20]: 0.627 | fitness [8, 21]: 0.931 | fitness [8, 22]: 0.879 | fitness [8, 23]: 0.647 | fitness [8, 24]: 0.905 | fitness [8, 25]: 0.858 | fitness [8, 26]: 0.595
